Consider nine compounds from patent US20230227466A1, “SUBSTITUTED THIENOPYRIMIDINES THAT INTERACT WITH THE RAS SUPERFAMILY FOR THE TREATMENT OF CANCERS, INFLAMMATORY DISEASES, RASOPATHIES, AND FIBROTIC DISEASE” (SHY Therapeutics, LLC, priority 2020, published 2023).

The target of one assay is T1, KRas G12D mutant (Homo sapiens, UniProt P01116, G12D).
T1 construct: made in house
Nature of the assay: Ras GTP binding domain inhibition assay (labeled-GTP competition, cell-free). The method, boiled down:
(§1)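 Immobilized His-tagged protein (Ni plate, 10-30 μg/mL, overnight 4° C); compound 20 μM or dilution series, 1% DMSO, 3 h RT, ±Sos 556-1049 last hour; Cy3/Cy5-GTP 100 nM, 45 min RT; 3× wash; bound fluorescence read.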

The target in another assay is T2, KRas G12C mutant (Homo sapiens, UniProt P01116, G12C).
T2 construct: made in house
The description is as above. Put shortly:
as §1

The target in the next assay is T3, KRas Q61H mutant (Homo sapiens, UniProt P01116, Q61H).
T3 construct: made in house
The assay is described as above. Put shortly: as §1

In assay [1] the test system is Akt phosphorylation in Panc-1 cells. Nature of the assay: Western AKT cell-based phosphorylation assay. Details: species or system human. The following applies: at 10 μM, values in brackets < > are activation %, not inhibition. Put shortly:
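Panc-1 cells starved overnight in 0.5% FBS, exposed to compound at 10 μM (0.3% DMSO) for 6 h at 37° C, then stimulated with 1.5 ng/ml EGF for 15 min. Lysates probed by western blot with anti-phospho-Akt (Ser473), equal protein loading checked by Ponceau S.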

The target of the next assay is Rac-1 (Homo sapiens, UniProt P63000). Nature of the assay: Ras GTP binding domain inhibition assay (labeled-GTP competition, cell-free). The arrangement: made in house. The method, boiled down: as §1
A further assay has as its target Rho-A (Homo sapiens, UniProt P61586). The description is as above. Details: made in house. The method, boiled down: as §1
In another assay the target is KRas wild type (Homo sapiens, UniProt P01116). The assay is described as above. The arrangement: made in house. Put shortly: as §1
Setting [2] is: with SOS, read-out: KRas G12D mutant + SOS: % inh.
Where [3] appears, read: without SOS, read-out: KRas G12D mutant: % inh.
Setting [4] is: with SOS, read-out: KRas G12C mutant + SOS: % inh.
Setting [5] is: without SOS, read-out: KRas G12C mutant: % inh.
The mark [6] stands for this setting: with SOS, read-out: KRas Q61H mutant + SOS: % inh.
Where [7] appears, read: without SOS, read-out: KRas Q61H mutant: % inh.
The mark [8] stands for this setting: with SOS, read-out: Rac-1 + SOS: % inh.
The mark [9] stands for this setting: without SOS, read-out: Rac-1: % inh.
Setting [10] is: with SOS, read-out: Rho-A + SOS: % inh.
[11] abbreviates: without SOS, read-out: Rho-A: % inh.
Setting [12] is: with SOS, read-out: KRas wild type + SOS: % inh.
Where [13] appears, read: without SOS, read-out: KRas wild type: % inh.

Read-outs that look alike come from different tables or passages of the source.

Take `CO[C@H]1CC[C@@H](Nc2nc(-c3ccccn3)nc3sc(-c4ccn(C(C)C)n4)c(C)c23)C1` (racemic) [Compound 69, Rac-6-(1-isopropyl-1H-pyrazol-3-yl)-N-((1R,3S)-3-methoxycyclopentyl)-5-methyl-2-(pyridine-2-yl)thieno[2,3-d]pyrimidin-4-amine]: the inhibition at 20 µM at KRas G12D mutant (setting [2]) was in the range of 51 to 75%; on KRas G12D mutant (setting [3]) it was 51 to 75%; on KRas G12C mutant (setting [4]), 51 to 75%; on KRas G12C mutant (setting [5]), 51 to 75%; at KRas Q61H mutant (setting [6]), 76 to 100%; at KRas Q61H mutant (setting [7]), 76 to 100%. Also, the inhibition at 20 µM at Rac-1 (setting [8]) was 26 to 50%; at Rac-1 (setting [9]) it was 1 to 25%; on Rho-A (setting [10]) it was 51 to 75%; on Rho-A (setting [11]) it was 51 to 75%; on KRas wild type (setting [12]), 51 to 75%; on KRas wild type (setting [13]) it was 51 to 75%. Moreover, the “% inh of AKT phosphorylation in PANC-1” value in assay [1] was “D (76-100% inhibition)”.

As to `COC1CCCN(c2nc(-c3ccccn3)nc3sc(-c4ccn(C(C)C)n4)c(C)c23)C1` (racemic) [Compound 70, Rac-6-(1-Isopropyl-1H-pyrazol-3-yl)-4-(3-methoxypiperidin-1-yl)-5-methyl-2-(pyridin-2-yl)thieno[2,3-d]pyrimidine], the inhibition at 20 µM at KRas G12D mutant (setting [2]) is 26 to 50%; at KRas G12D mutant (setting [3]), 26 to 50%; at KRas G12C mutant (setting [4]), 26 to 50%; on KRas G12C mutant (setting [5]) it was 51 to 75%; on KRas Q61H mutant (setting [6]), 26 to 50%; on KRas Q61H mutant (setting [7]), 26 to 50%. Further, the inhibition at 20 µM is 26 to 50% on Rac-1 (setting [8]); 26 to 50% on Rac-1 (setting [9]); 51 to 75% on Rho-A (setting [10]); 51 to 75% at Rho-A (setting [11]); 26 to 50% on KRas wild type (setting [12]); 26 to 50% at KRas wild type (setting [13]). Further, the “% inh of AKT phosphorylation in PANC-1” value in assay [1] is 0 (0% inhibition).

As for `COCC1CCN(c2nc(-c3ccccn3)nc3sc(-c4ccn(C(C)C)n4)c(C)c23)C1` (racemic) [Compound 71, Rac-6-(1-Isopropyl-1H-pyrazol-3-yl)-4-(3-(methoxymethyl)pyrrolidin-1-yl)-5-methyl-2-(pyridin-2-yl)thieno[2,3-d]pyrimidine], the inhibition at 20 µM is 1 to 25% on KRas G12D mutant (setting [2]); 0% at KRas G12D mutant (setting [3]); 26 to 50% on KRas G12C mutant (setting [4]); 26 to 50% at KRas G12C mutant (setting [5]); 51 to 75% at KRas Q61H mutant (setting [6]); 26 to 50% on KRas Q61H mutant (setting [7]). Besides, the inhibition at 20 µM at Rac-1 (setting [9]) is 0%; at Rho-A (setting [11]) it was 76 to 100%; at KRas wild type (setting [12]) it was 26 to 50%; on KRas wild type (setting [13]), 26 to 50%. In addition, the “% inh of AKT phosphorylation in PANC-1” value in assay [1] is “D (76-100% inhibition)”.

With `COCC1CCN(c2nc(-c3nccn3C)nc3sc(-c4ccn(C(C)C)n4)c(-c4ccccc4)c23)C1` (racemic) [Compound 76, Rac-6-(1-isopropyl-1H-pyrazol-3-yl)-4-(3-(methoxymethyl)pyrrolidin-1-yl)-2-(1-methyl-1H-imidazol-2-yl)-5-phenylthieno[2,3-d]pyrimidine], the inhibition at 20 µM was 26 to 50% on KRas G12D mutant (setting [2]); 51 to 75% on KRas G12D mutant (setting [3]); 0% at KRas G12C mutant (setting [4]); 1 to 25% at KRas G12C mutant (setting [5]); 51 to 75% on KRas Q61H mutant (setting [6]); 26 to 50% on KRas Q61H mutant (setting [7]). Further, the inhibition at 20 µM at Rac-1 (setting [9]) is 1 to 25%; on Rho-A (setting [11]) it was 26 to 50%; at KRas wild type (setting [12]) it was 51 to 75%; on KRas wild type (setting [13]) it was 51 to 75%. Further, the “% inh of AKT phosphorylation in PANC-1” value in assay [1] is 0 (0% inhibition).

Regarding `COC1CCCN(c2nc(-c3nccn3C)nc3sc(-c4ccn(C(C)C)n4)c(-c4ccccc4)c23)C1` (racemic) [Compound 77, Rac-6-(1-isopropyl-1H-pyrazol-3-yl)-4-(3-methoxypiperidin-1-yl)-2-(1-methyl-1H-imidazol-2-yl)-5-phenylthieno[2,3-d]pyrimidine], the inhibition at 20 µM is 26 to 50% on KRas G12D mutant (setting [2]); 51 to 75% on KRas G12D mutant (setting [3]); 0% at KRas G12C mutant (setting [4]); 26 to 50% on KRas G12C mutant (setting [5]); 26 to 50% on KRas Q61H mutant (setting [6]); 1 to 25% at KRas Q61H mutant (setting [7]). Besides, the inhibition at 20 µM was 1 to 25% on Rac-1 (setting [9]), 26 to 50% on Rho-A (setting [11]), 26 to 50% at KRas wild type (setting [12]) and 26 to 50% at KRas wild type (setting [13]). In addition, the “% inh of AKT phosphorylation in PANC-1” value in assay [1] was “<A>”.

`CO[C@H]1CC[C@@H](Nc2nc(-c3nccn3C)nc3sc(-c4cc[nH]n4)c(-c4ccccc4)c23)C1` (racemic) [Example 1, Rac-N-((1R,3S)-3-methoxycyclopentyl)-2-(1-methyl-1H-imidazol-2-yl)-5-phenyl-6-(1H-pyrazol-3-yl)thieno[2,3-d]pyrimidin-4-amine]: the inhibition at 20 µM was 0% on KRas G12D mutant (setting [2]); 0% at KRas G12D mutant (setting [3]); 1 to 25% at KRas G12C mutant (setting [4]); 1 to 25% on KRas G12C mutant (setting [5]); 1 to 25% on KRas Q61H mutant (setting [6]); 1 to 25% at KRas Q61H mutant (setting [7]). Further, the inhibition at 20 µM at Rac-1 (setting [8]) was 1 to 25%; at Rac-1 (setting [9]), 0%; on Rho-A (setting [10]), 0%; at Rho-A (setting [11]) it was 1 to 25%; on KRas wild type (setting [12]), 1 to 25%; on KRas wild type (setting [13]), 0%. Besides, the 50% inhibitory concentration (IC50) (as a rule, the midpoint of a concentration-inhibition curve) on KRas Q61H mutant (with SOS) is over 10 µM. Moreover, the “% inh of AKT phosphorylation in PANC-1” value in assay [1] was 0 (0% inhibition).

On to `CO[C@H]1CC[C@@H](Nc2nc(-c3nccn3C)nc3sc(-c4ccn(C(C)C)n4)c(-c4ccccc4)c23)C1` [Compound 5, 6-(1-Isopropyl-1H-pyrazol-3-yl)-N-((1R,3S)-3-methoxycyclopentyl)-2-(1-methyl-1H-imidazol-2-yl)-5-phenylthieno[2,3-d]pyrimidin-4-amine], for which the inhibition at 20 µM at KRas G12D mutant (setting [2]) was 51 to 75%; on KRas G12D mutant (setting [3]) it was 1 to 25%; on KRas G12C mutant (setting [4]), 76 to 100%; on KRas G12C mutant (setting [5]) it was 51 to 75%; at KRas Q61H mutant (setting [6]), 76 to 100%; on KRas Q61H mutant (setting [7]), 26 to 50%. Moreover, the inhibition at 20 µM on Rac-1 (setting [8]) lay in the range of 26 to 50%; at Rac-1 (setting [9]), 26 to 50%; on Rho-A (setting [10]), 51 to 75%; at Rho-A (setting [11]), 51 to 75%; on KRas wild type (setting [12]), 76 to 100%; at KRas wild type (setting [13]), 51 to 75%. In addition, the concentration for half-maximal inhibition (IC50) on KRas Q61H mutant (with SOS) is 1 to 4.99 µM. The “% inh of AKT phosphorylation in PANC-1” value in assay [1] was “D (76-100% inhibition)”.

Consider `COCCn1ccnc1-c1nc(N[C@H]2C[C@@H](OC)C2)c2c(-c3ccccc3)c(-c3ccn(C)n3)sc2n1` [Compound 7, N-((1s,3s)-3-Methoxycyclobutyl)-2-(1-(2-methoxyethyl)-1H-imidazol-2-yl)-6-(1-methyl-1H-pyrazol-3-yl)-5-phenylthieno[2,3-d]pyrimidin-4-amine], for which the inhibition at 20 µM fell in the range of 76 to 100% at KRas G12D mutant (setting [2]); 51 to 75% at KRas G12D mutant (setting [3]); 76 to 100% at KRas G12C mutant (setting [4]); 76 to 100% at KRas G12C mutant (setting [5]); 76 to 100% at KRas Q61H mutant (setting [6]); 76 to 100% at KRas Q61H mutant (setting [7]). Also, the inhibition at 20 µM on Rac-1 (setting [8]), on Rac-1 (setting [9]), at Rho-A (setting [10]), at Rho-A (setting [11]), on KRas wild type (setting [12]) and at KRas wild type (setting [13]) was 76 to 100% throughout. Moreover, the IC50 at KRas Q61H mutant (with SOS) lay in the range of 1 to 4.99 µM. The “% inh of AKT phosphorylation in PANC-1” value in assay [1] is given as 0 (0% inhibition).

`COCCn1ccnc1-c1nc(N[C@H]2C[C@@H](OC)C2)c2ccsc2n1` [Compound 9, N-((1s,3s)-3-Methoxycyclobutyl)-2-(1-(2-methoxyethyl)-1H-imidazol-2-yl)thieno[2,3-d]pyrimidin-4-amine]: the inhibition at 20 µM at KRas G12D mutant (setting [2]) was 76 to 100%; at KRas G12D mutant (setting [3]), 51 to 75%; at KRas G12C mutant (setting [4]), 76 to 100%; on KRas G12C mutant (setting [5]) it was 76 to 100%; at KRas Q61H mutant (setting [6]), 76 to 100%; at KRas Q61H mutant (setting [7]), 76 to 100%. In addition, the inhibition at 20 µM at Rac-1 (setting [8]), at Rac-1 (setting [9]), on Rho-A (setting [10]), on Rho-A (setting [11]), at KRas wild type (setting [12]) and at KRas wild type (setting [13]) was 76 to 100% throughout. For the same compound, the concentration for half-maximal inhibition (IC50) at KRas Q61H mutant (with SOS) is 5 to 10 µM. For the same compound, in assay [1], the “% inh of AKT phosphorylation in PANC-1” value is given as 0 (0% inhibition).
